Results from patent US20200069677A1, “MARKERS FOR PERSONALIZED CANCER TREATMENT WITH LSD1 INHIBITORS” (Constellation Pharmaceuticals, Inc., priority 2016, published 2020).

Columns and labels:
SET2 xenografts = assay: In vivo efficacy on SET2 tumor xenografts; details: Nude mice; 1.5, 5 and 15 mg/kg p.o. QD; 14 days of dosing
Description: FIG. 12 illustrates the in vivo efficacy of GSK2879552 on SET2 xenografts. […] Tumor-bearing animals were treated with 3 different dose levels of the KDM1A inhibitor: 1.5 mg/kg, 5 mg/kg, and 15 mg/kg administered orally (p.o.) on a daily schedule (QD). […] Top right panel indicates body weight changes determined in the treated mice.

KDM1A/CoREST complex [1] = molecular target: T1, KDM1A/CoREST complex (Homo sapiens, UniProt O60341); assay: Anti-KDM1A immunoprecipitation and Western blot in SET2 cells; assay type: cell-based; set-up: endogenous in cells; host or cells: SET2 cells
Description: […] Cells were harvested, washed twice with cold PBS and resuspended in 5 volumes of Buffer A (10 mM Tris-HCL (pH 8.0), 1.5 mM MgCl2, 10 mM KCl, 0.5 mM DTT, supplemented with protease inhibitors). After 15 minutes on ice, cells were spun down at 1000×g for 15 minutes and the supernatant was removed as the cytosolic fraction. Pellets were resuspended in Buffer C (20 mM Tris-HCl, (pH 7.9), 25% glycerol, 0.42 M NaCl, 1.5 mM MgCl2, 0.2 mM EDTA, 0.5 mM DTT and protease inhibitors) and sonicated briefly (3 seconds, 40% output). After incubating on ice for 30 minutes, cells were spun at 20,000×g for 20 minutes to pellet the insoluble material. The supernatant was removed (soluble nuclear fraction) and combined with the cytosolic fraction to reconstitute a whole cell lysate with a final NaCl concentration of <200 mM. […] Co-precipitated proteins were detected by western blotting using the indicated primary antibodies. […] Bound antibodies were detected with goat anti-rabbit IgG antibody and goat anti-mouse IgG, conjugated with DyLight 800 AND DyLight 680, respectively. […]

KDM1A/CoREST complex [2] = molecular target: T1, KDM1A/CoREST complex; assay: Anti-KDM1A immunoprecipitation and Western blot in HEL cells; assay type: cell-based; set-up: endogenous in cells; details: overnight at 1 μM
Description: For immunoprecipitation, 3 μg of anti-KDM1A antibody (Bethyl Labs, Montgomery, Tex.) or rabbit IgG (Cell Signaling, Danvers, Mass.) were added to 0.5 mg of reconstituted whole cell lysate and placed on a rotator at 4° C. overnight. To isolate the immune complexes, 50 μL of pre-washed Protein G magnetic beads (Dynabeads, Invitrogen) equilibrated in A+C buffer (1:1) were added and the samples were rotated for 4° C. for an additional 2 hours. Beads were captured using a magnetic stand (DynaMag, Invitrogen) and washed 3 times with buffer A+C. The beads were re-suspended in 25 μl 2×SDS loading buffer and resolved on 4-12% SDS-PAGE gels. Co-precipitated proteins were detected by western blotting using the indicated primary antibodies. […] Here, HEL cells were treated with the KDM1A inhibitor RN-1 overnight at 1 μM concentration. Cell lysates were prepared and an immunoprecipitation was carried out using an anti-KDM1A antibody and rabbit IgG as a control. SDS-PAGE and Western blotting was performed on the input material and immunoprecipitated material. Blot was probed with an anti-GFI1B, anti-KDM1A, and anti-vinculin antibodies. Bound antibodies were detected with goat anti-rabbit IgG antibody and goat anti-mouse IgG, conjugated with DyLight 800 AND DyLight 680, respectively.

CoREST retention in the KDM1A complex (co-immunoprecipitation) (KDM1A/CoREST complex [1]; SET-2 cells, overnight at 1 μM) | SMILES | Growth of SET-2 tumor xenografts (tumor size) (SET2 xenografts) | GFI1B association with the KDM1A/CoREST complex (co-immunoprecipitation) (KDM1A/CoREST complex [1]; SET2 cells, 1 μM RN-1 for 24 hours, vs DMSO) | GFI1B association with the KDM1A/CoREST complex (co-immunoprecipitation) (KDM1A/CoREST complex [2])
– | O=C(O)c1ccc(CN2CCC(CN[C@@H]3C[C@H]3c3ccccc3)CC2)cc1 [GSK2879552] | reduced the growth of SET-2 tumor xenografts | – | –
CoREST is retained in the KDM1A complex | CN1CCN(C(=O)CN[C@@H]2CC2c2ccc(OCc3ccccc3)cc2)CC1 (stereo partly shown) [RN-1] | – | displacement of GFI1B from the KDM1A/CoREST complex | displacement of GFI1B from the KDM1A/CoREST complex
